Our source for the Activity, inhibition in vivo and Vd values is ChEMBL document CHEMBL6121044, “Discovery of Novel Spirocyclic MAT2A Inhibitors Demonstrating High In Vivo Efficacy in MTAP-Null Xenograft Models” (J Med Chem, 2025).

Data set [1] in a line: Toxicity in mouse xenografted with MTAP-deleted human HCT116 cells assessed as body weight loss at 10 mg/kg, po qd measured after 18 days relative to control. Type of data set: organism-based. The conditions noted are these: in vivo, 432 h, time 18 day. For orientation: Xenograft models place foreign cells or tissue in a host animal.
Data set [2] is described as follows: In vivo antitumor activity against MTAP-deleted human KP-4 cells xenografted mouse model assessed as tumor growth inhibition at 10 mg/kg, po qd measured after 18 days relative to control. The class given is functional. As to conditions: KP-4, 432 h, time 18 day, read-out: TGI.
The test system of data set [3] is HCT-116. In words: In vivo antitumor activity against MTAP-deleted human HCT-116 cells xenografted mouse model assessed as tumor growth inhibition at 1 mg/kg, po qd measured after 18 days relative to control. The class given is functional. The conditions noted are these: HCT-116, 432 h, time 18 day, read-out: TGI.
Data set [4] in a line: Chronic toxicity in female ICR mouse assessed as body weight loss at 10 mg/kg, po once daily measured after 19 days relative to control. As to conditions: in vivo, 456 h, time 19 day. The class given is organism-based.
Data set [5] is described as follows: In vivo antitumor activity against MTAP-deleted human NCI-H838 cells xenografted mouse model assessed as tumor growth inhibition at 10 mg/kg, po qd measured after 18 days relative to control. Type of data set: functional. The conditions noted are these: NCI-H838, 432 h, time 18 day, read-out: TGI.
Data set [6] in a line: Volume of distribution at steady state in male ICR mouse at 2 mg/kg, iv measured upto 24 hrs by LC-MS/MS analysis. The class given is ADME, organism-based. The conditions noted are these: in vivo, read-out: Vdss.
A short description of data set [7]: Chronic toxicity in male ICR mouse assessed as body weight loss at 10 mg/kg, po once daily measured after 19 days relative to control. The class given is organism-based. As to conditions: in vivo, 456 h, time 19 day.
The subject of data set [8] is HCT-116. As to the kind of experiment: In vivo antitumor activity against MTAP-deleted human HCT-116 cells xenografted mouse model assessed as tumor growth inhibition at 3 mg/kg, po qd measured after 18 days relative to control. Type of data set: functional. The conditions noted are these: HCT-116, 432 h, time 18 day, read-out: TGI.
Data set [9] is described as follows: In vivo antitumor activity against MTAP-deleted human NCI-H838 cells xenografted mouse model assessed as tumor growth inhibition at 3 mg/kg, po qd measured after 18 days relative to control. The class given is functional. The conditions noted are these: NCI-H838, 432 h, time 18 day, read-out: TGI.
Data set [10] has as its system KP-4. As to the kind of experiment: In vivo antitumor activity against human KP-4 cells xenografted mouse model assessed as tumor growth inhibition at 90 mg/kg, po qd measured after 18 days relative to control. Type of data set: functional. As to conditions: KP-4, 432 h, time 18 day, read-out: TGI.
Data set [11] is described as follows: In vivo antitumor activity against MTAP-deleted human KP-4 cells xenografted mouse model assessed as tumor growth inhibition at 30 mg/kg, po qd measured after 18 days relative to control. Type of data set: functional. The conditions noted are these: KP-4, 432 h, time 18 day, read-out: TGI.
Data set [12] relates to HCT-116. As to the kind of experiment: In vivo antitumor activity against MTAP-deleted human HCT-116 cells xenografted mouse model assessed as tumor growth inhibition at 10 mg/kg, po qd measured after 18 days relative to control. Type of data set: functional. The conditions noted are these: HCT-116, 432 h, time 18 day, read-out: TGI.
Data set [13] concerns HCT-116. As to the kind of experiment: In vivo antitumor activity against MTAP-deleted human HCT-116 cells xenografted mouse model assessed as tumor growth inhibition at 30 mg/kg, po qd measured after 18 days relative to control. The class given is functional. The conditions noted are these: HCT-116, 432 h, time 18 day, read-out: TGI.

SMILES strings stand for the structures.

As to `[2H]C([2H])([2H])NC1=NC(=O)[C@]2(CCc3ncccc32)c2cc(C(F)(F)F)ccc21`, the Activity is on record as ~ 15% in [1], 2.36% in data set [4] and 9.77% in data set [7]. The inhibition in vivo at 10 mg/kg came to 80% in data set [2] and 78.1% in data set [5]. Also, the inhibition in vivo at 1 mg/kg in [3] worked out at 61.9%. In addition, in [6], the Vd stood at 1.7 L/kg. Also, the results for the inhibition in vivo at 3 mg/kg in data set [8] and in data set [9] were 85.9% and 61.5%, respectively.
As to `[2H]C([2H])([2H])NC1=NC(=O)[C@]2(CCc3ncccc32)c2cc(C(C)(F)F)ccc21`, in data set [10], the inhibition in vivo at 90 mg/kg worked out at 74%. Besides, the results for the inhibition in vivo at 30 mg/kg in [11] and in data set [13] were 62% and 85.4%, respectively. For the same compound, in data set [12], the inhibition in vivo at 10 mg/kg was 72.1%.
